According to patent US11299506B2, “Acylnucleoside phosphonates, prodrugs thereof and use thereof as medicament” (UNIVERSITE DE MONTPELLIER, priority 2017, dated 2022):
Where two headings read alike, the source gives them in different places.

Assays:
[1] = test system: Plasmodium falciparum (strain 3D7); assay: In vitro anti-Plasmodium falciparum activity (infected erythrocytes, radioactive precursor incorporation); format: cell-based
Method: After 48 h of incubation in the absence (control) or in the presence of the compound to be tested, the radioactive precursor is added, and the reaction is continued for another 18 h, then stopped by freezing at −80° C. The macromolecules, including the radiolabeled nucleic acids, are collected on a filter. The incorporated radioactivity is measured with the scintillation counter after addition of scintillation cocktail. The radioactive background noise is measured based on a suspension of healthy erythrocytes (same conditions as for parasite-containing suspensions). The viability of the parasites is expressed as a (nonspecific derived) percentage of the control. […] The IC50 values thus determined are the result of at least two experiments carried out independently in duplicate. Batches A and B correspond to two different syntheses according to the same procedure and carried out in their totality by two different operators, at a six month interval.

K562 cells = assay: Toxicity with respect to K562 cells ([3H]-thymidine incorporation); format: cell-based, human; conditions: 3H-thymidine detection; Batch B; 24 h incubation; read-out: Activity against the K562 cells, 3H-Thymidine, Batch B IC50
Method: Suspensions of human cells (8000 cells per well) are cultured in complete RPMI medium (RPMI 1640 medium, L-glutamine, penicillin/streptomycin and 10% fetal calf serum) (200 μL) either in the absence of the compound to be tested (controls), or in contact with variable concentrations of said compound.
After 24 h of incubation (or approximately one cell cycle), 0.7 μCi of [^3H]-thymidine (radiolabeled precursor of the synthesis of the nucleic acids) diluted in 30 μL of complete RPMI medium are added to each well. After 6 h of additional incubation, the thymidine incorporation reaction is stopped by freezing at −80° C. As for the determination of the in vitro anti-malarial activity, the macromolecules, including the radiolabeled nucleic acids, are collected on a filter. The incorporated radioactivity is measured with the scintillation counter after addition of scintillation cocktail.
The radioactive background noise is measured based on complete RPMI medium. The viability of the cells is expressed as a (nonspecific derived) percentage of the control. The measurements are analyzed using Excel and Prism software, and the IC50 (concentration capable of in vitro inhibition of 50% of the growth of the cells) is determined graphically.
The IC50 values thus determined are the result of at least two experiments performed independently in duplicate.

Babesia divergens = assay: In vitro anti-Babesia divergens activity (infected erythrocytes, [3H]-hypoxanthine incorporation); format: cell-based; conditions: 16 h contact, read-out: Activity against Babesia divergens IC50
Method: After 16 h of incubation in the absence (control) or in the presence of the compound, the radioactive precursor is added and the reaction is continued for another 8 h and then stopped by freezing at −80° C. As for the determination of the in vitro anti-parasitic activity, the macromolecules, including the radiolabeled nucleic acids, are collected on a filter. The incorporated radioactivity is measured with the scintillation counter after addition of scintillation cocktail. The radioactive background noise is measured based on a suspension of healthy erythrocytes (same conditions as for the parasite-containing suspensions). The viability of the parasites is expressed as a (nonspecific derived) percentage of the control. […] The IC50 values thus determined are the result of at least two experiments performed independently in duplicate.

Toxoplasma gondii = assay: In vitro anti-toxoplasmosis activity by plaque assay on HFF fibroblast monolayer; format: cell-based; conditions: 7 days, average of 2 values
Method: This test is based on the capability of Toxoplasma gondii in its intracellular form (tachyzoite) to bring about the lysis of its host cell (here a monolayer of fibroblasts) and to then infect the neighboring cells so that over time (days) a macroscopically visible hole in the monolayer of cells becomes apparent and its area can be measured. In the 24-well culturing plates, approximately 80 parasites are added to a monolayer of fibroblasts (HFF cells) for 7 days in the presence or absence of drug. The cells are then fixed with 4% paraformaldehyde, and then stained with Giemsa. The cells are visualized under the microscope, and the size of the lysis plaques is measured using the software Zen® (Zeiss). The cells are maintained in culture in complete medium (DMEM+5% fetal calf serum+glutamine+penicillin/streptomycin). The ability of the drug to inhibit the growth of Toxoplasma gondii is proportional to the decrease in the size of the lysis plaque.
The results obtained are collected in Table 4 (average of 2 values) below and in FIG. 1.

[2] = Plasmodium falciparum, 3D7, Erythrocyte, 3H-ethanolamine detection, Batch A, 48 h contact, read-out: Activity against P. falciparum (3D7), detection 3H-Ethanolamine, Batch A IC50
[3] = Plasmodium falciparum, 3D7, Erythrocyte, 3H-hypoxanthine detection, Batch A, 48 h contact, read-out: Activity against P. falciparum (3D7), detection 3H-Hypoxanthine, Batch A IC50
[4] = read-out: Activity against P. falciparum (3D7), detection 3H-Ethanolamine, Batch A IC50
[5] = read-out: Activity against P. falciparum (3D7), detection 3H-Hypoxanthine, Batch A IC50
[6] = read-out: Activity against P. falciparum (3D7), detection 3H-Hypoxanthine, Batch B IC50

| IC50 [1, 3] | IC50 (Babesia divergens; Babesia divergens, Erythrocyte) | Molecule | IC50 [1, 4] | IC50 [1, 5] | also measured |
| --- | --- | --- | --- | --- | --- |
| > 1000 µM |  | Nc1ncnc2c1ncn2C[C@@H](O)CP(=O)(O)O [Compound 10, N-9-[(2R)-2-hydroxy-3-phosphonopropyl] adenine] |  |  | IC50 [1, 2]: > 1000 µM |
|  |  | N-9-[(2R)-2-hydroxy-3-phosphonopropyl]2,6-diamino purine [Compound 13] | 740 µM | 510 µM |  |
|  |  | COc1nc(N)nc2c1ncn2C[C@H](O)CCP(=O)(OCCSC(=O)c1ccccc1)OCCSC(=O)c1ccccc1 [Compound 6, 6-O-methyl-9-[(2R)-2-hydroxy-4-bis(S-benzoyl-2-thioethyl)phosphonobutyl]-2-aminopurine] |  |  | IC50 [1, 6]: 62 µM; IC50 (K562 cells): 20 µM |
| > 100 µM | 470 µM | O=P(O)(O)C[C@H](O)CCn1cnc2cc(Cl)c(Cl)cc21 [Compound 18] |  |  |  |
|  |  | N-9[(2R)-2-hydroxy-4-phosphonobutyl]adenine [Compound 2] | > 1000 µM | > 1000 µM |  |
|  |  | COc1nc(N)nc2c1ncn2C[C@@H](O)CCP(=O)(OCCSC(=O)c1ccccc1)OCCSC(=O)c1ccccc1 [Compound 4, 6-O-methyl-9-[(2S)-2-hydroxy-4-bis(S-benzoyl-2-thioethyl)phosphonobutyl]-2-amino Purine] |  |  | IC50 [1, 6]: 57 µM; IC50 (K562 cells): 22 µM |
|  | 0.183 µM | N=C(N)c1ccc(OCCCCCOc2ccc(C(=N)N)cc2)cc1 [Pentamidine, reference compound] |  |  |  |
| ≥ 1000 µM |  | Nc1nc2c(ncn2C[C@@H](O)CP(=O)(O)O)c(=O)[nH]1 [Compound 11, N-9-[(2R)-2-hydroxy-3-phosphonopropyl]guanine] |  |  | IC50 [1, 2]: > 1000 µM |
|  |  | N-9-[(2S)-2-hydroxy-3-phosphono propyl]guanine [Compound 12] |  |  | IC50 (Babesia divergens): > 1000 µM |
| > 1000 µM | > 100 µM | O=c1[nH]cnc2c1ncn2CC[C@H](O)CP(=O)(O)O [Compound 21] |  |  |  |
| 910 µM | > 1000 µM | O=c1[nH]c(=O)c2ncn(CC[C@H](O)CP(=O)(O)O)c2[nH]1 [Compound 22] |  |  |  |
| > 100 µM | > 100 µM | O=c1[nH]c(=O)c2ncn(CC[C@@H](O)CP(=O)(O)O)c2[nH]1 [Compound 19] |  |  |  |
|  |  | N-9-[(2S)-2-hydroxy-3-phosphono propyl]guanine [Compound 3] | 6 µM | 3.3 µM | IC50 [1, 6]: 7.05 µM; IC50 (K562 cells): > 5000 µM; IC50 (Babesia divergens): 3.6 µM; Inhibition of the growth of T. gondii (Toxoplasma gondii; Conc = 5 μM): 0 % of the controls; Inhibition of the growth of T. gondii (Toxoplasma gondii; Conc = 50 μM): 18 % of the controls |
| > 1000 µM | > 100 µM | O=c1[nH]cnc2c1ncn2CC[C@@H](O)CP(=O)(O)O [Compound 20] |  |  |  |
|  |  | N-9-[(2S)-2-hydroxy-3-phosphonopropyl]2,6-diamino purine [Compound 14] | 650 µM | 595 µM |  |
| 62 µM | > 100 µM | Nc1ncc2ncn(CC[C@@H](O)CP(=O)(O)O)c2n1 [Compound 16] |  |  |  |
|  |  | CCN(CC)CCCC(C)Nc1ccnc2cc(Cl)ccc12 (stereo not shown) [Chloroquine, reference compound] |  |  | IC50 ([1]; Plasmodium falciparum, 3D7, Erythrocyte, read-out: Activity against P. falciparum (3D7), detection 3H-Ethanolamine, Batch A IC50): 0.014 µM; IC50 ([1]; Plasmodium falciparum, 3D7, Erythrocyte, read-out: Activity against P. falciparum (3D7), detection 3H-Hypoxanthine, Batch A IC50): 0.0145 µM |
|  |  | N-9-[(2S)-2-hydroxy-3-phosphonopropyl] adenine [Compound 9] | > 1000 µM | > 1000 µM |  |
|  |  | N-9-[(2R)-2-hydroxy-3-phosphonobutyl]guanine [Compound 5] | 0.043 µM | 0.058 µM | IC50 [1, 6]: 0.0775 µM; IC50 (K562 cells): 10000 µM; IC50 (Babesia divergens): 0.48 µM; Inhibition of the growth of T. gondii (Toxoplasma gondii; Conc = 5 μM): 42 % of the controls; Inhibition of the growth of T. gondii (Toxoplasma gondii; Conc = 50 μM): 100 % of the controls |
